Measured values as given in ChEMBL document CHEMBL3352455, “Small molecule disruptors of the glucokinase-glucokinase regulatory protein interaction: 4. Exploration of a novel binding pocket” (J Med Chem, 2014).

Experiments:
[1] = Fraction unbound in Sprague-Dawley rat plasma; format: ADME, cell-free
[2] = molecular target: T1, Hexokinase-4 (Homo sapiens, UniProt P35557); experiment: Inhibition of fluorescein-labeled human GK interaction with biotin-labeled human GKRP compound incubated for 20 mins prior to addition of fluorescein-labeled GK measured after 2 to 4 hrs by AlphaScreen assay
T1 sequence (P35557 whole entry): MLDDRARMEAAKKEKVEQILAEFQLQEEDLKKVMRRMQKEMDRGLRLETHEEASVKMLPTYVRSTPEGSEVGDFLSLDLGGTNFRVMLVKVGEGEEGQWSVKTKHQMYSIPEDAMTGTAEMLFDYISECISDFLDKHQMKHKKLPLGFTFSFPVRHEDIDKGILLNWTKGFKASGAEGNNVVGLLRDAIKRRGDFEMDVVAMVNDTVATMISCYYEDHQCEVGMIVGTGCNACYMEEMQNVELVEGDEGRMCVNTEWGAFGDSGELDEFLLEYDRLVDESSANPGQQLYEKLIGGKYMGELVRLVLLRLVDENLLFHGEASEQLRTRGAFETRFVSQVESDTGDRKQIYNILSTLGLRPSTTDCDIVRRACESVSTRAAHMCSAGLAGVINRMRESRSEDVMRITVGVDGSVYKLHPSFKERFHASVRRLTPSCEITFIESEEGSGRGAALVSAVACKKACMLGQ

[3] = molecular target: Cytochrome P450 2D6 (Homo sapiens, UniProt P10635); experiment: Inhibition of CYP2D6 (unknown origin); format: ADME
[4] = Mean residence time in Sprague-Dawley rat at 2 mg/kg, iv; format: ADME, organism-based; design: dose 2 mg/kg, route intravenous; settings: in vivo
[5] = AUC in Sprague-Dawley rat at 10 mg/kg, po; format: ADME, organism-based; design: dose 10 mg/kg, route oral; settings: plasma
[6] = Intrinsic clearance in rat liver microsomes at 1 uM after 30 mins in presence of NADPH; format: ADME; settings: read-out: CLH
[7] = Intrinsic clearance in human liver microsomes at 1 uM after 30 mins in presence of NADPH; format: ADME; settings: read-out: CLH
[8] = molecular target: Cytochrome P450 3A4 (Homo sapiens, UniProt P08684); experiment: Inhibition of CYP3A4 (unknown origin); format: ADME
[9] = Volume of distribution at steady state in Sprague-Dawley rat at 2 mg/kg, iv; format: ADME, organism-based; design: dose 2 mg/kg, route intravenous; settings: in vivo, read-out: Vdss
[10] = Oral bioavailability in Sprague-Dawley rat at 10 mg/kg; format: ADME, organism-based; settings: in vivo
[11] = system: Mus musculus; experiment: Antidiabetic activity in insulin-resistant db/db mouse assessed as reduction of fed blood glucose level at 10 to 100 mg/kg, po measured at 6 hrs relative to vehicle-treated control; format: functional; design: scale not given: the % may be the effect or the level left; settings: dose mg/kg 10-100
[12] = Clearance in Sprague-Dawley rat at 2 mg/kg, iv; format: ADME, organism-based; design: dose 2 mg/kg, route intravenous; settings: in vivo

Chain of Cytochrome P450 3A4 (P08684 whole entry): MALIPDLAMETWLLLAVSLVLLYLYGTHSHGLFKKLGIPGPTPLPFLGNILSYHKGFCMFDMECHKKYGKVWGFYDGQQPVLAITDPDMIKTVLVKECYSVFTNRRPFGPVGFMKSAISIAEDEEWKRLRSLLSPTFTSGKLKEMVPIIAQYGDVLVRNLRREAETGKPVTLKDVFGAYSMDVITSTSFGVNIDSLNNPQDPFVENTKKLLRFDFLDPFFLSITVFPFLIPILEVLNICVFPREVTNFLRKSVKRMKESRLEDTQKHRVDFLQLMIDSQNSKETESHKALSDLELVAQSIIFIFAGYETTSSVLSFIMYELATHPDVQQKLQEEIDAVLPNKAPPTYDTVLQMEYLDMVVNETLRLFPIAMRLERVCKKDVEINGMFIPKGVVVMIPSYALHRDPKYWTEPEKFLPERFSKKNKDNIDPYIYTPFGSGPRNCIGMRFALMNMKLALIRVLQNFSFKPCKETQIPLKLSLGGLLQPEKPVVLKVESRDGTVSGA
Chain of Cytochrome P450 2D6 (P10635 whole entry): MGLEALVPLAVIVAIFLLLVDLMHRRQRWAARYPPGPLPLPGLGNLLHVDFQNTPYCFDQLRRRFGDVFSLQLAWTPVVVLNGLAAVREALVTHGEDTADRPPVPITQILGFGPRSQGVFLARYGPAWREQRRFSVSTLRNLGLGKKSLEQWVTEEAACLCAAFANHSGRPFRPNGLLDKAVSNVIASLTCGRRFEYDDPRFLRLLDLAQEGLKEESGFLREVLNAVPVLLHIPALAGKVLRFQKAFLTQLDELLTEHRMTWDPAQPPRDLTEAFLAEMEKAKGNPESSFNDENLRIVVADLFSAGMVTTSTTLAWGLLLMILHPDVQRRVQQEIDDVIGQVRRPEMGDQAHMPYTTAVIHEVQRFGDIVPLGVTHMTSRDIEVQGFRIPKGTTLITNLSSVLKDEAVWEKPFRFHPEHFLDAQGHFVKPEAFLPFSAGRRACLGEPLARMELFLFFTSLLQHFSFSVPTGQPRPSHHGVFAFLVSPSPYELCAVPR

SMILES | fraction unbound [1] | IC50 [2] [µM] | IC50 [3] [µM] | MRT [4] [h] | AUC [5] [µM·h] | microsomal CLint at 1 µM [6] [µL/min/mg] | microsomal CLint at 1 µM [7] [µL/min/mg] | IC50 [8] [µM] | Vd [9] [L/kg] | bioavailability [10] [%] | Activity [11] [%] | clearance [12] [mL/min/kg]
Nc1ccc(S(=O)(=O)N2CCN(c3ncc(C(O)(C(F)(F)F)C(F)(F)F)cc3-c3cccnc3)CC2)cn1 | 0.021 | 0.005 | 27 | 2.18 | 4.74 | 20 | 17 | 27 | 3.36 | 43 | 25 | 25
Cn1cc(-c2cc(C(O)(C(F)(F)F)C(F)(F)F)cnc2N2CCN(S(=O)(=O)c3ccc(N)nc3)CC2)cn1 | 0.011 | 0.001 | 18 | 1.34 | 2.8 | 44 | 19 | 27 | 2.57 | 30 | – | 33.3
